What was measured:
hERG = hERG (Homo sapiens (Human), UniProt Q12809)
Method: To a cultured CHO cell strain which stably expresses hERG was added each test compound to adjust the final concentration of DMSO to 0.0135 to 0.5%. The hERG current was measured with QPatch HT (Sophion Inc.), and the concentration at which 50% of the hERG current was inhibited by each test compound (IC50 value; μM) was calculated.
The compounds of Examples were tested according to Test 2. And, the hERG/HT-29 was calculated by dividing the compound concentration obtained in Test 2 (50% of the hERG current is inhibited) by the compound concentration obtained in Test 1 (50% of the proliferation of HT-29 cells is inhibited).

HT-29 cells = assay: Inhibition test for sphere formation assay of cancer cells; type: cell-based; settings: for IC50: sphere culture (ultra-low attachment, serum-free), 4 days, CellTiter-Glo, read-out: Sphere IC50 value (concentration for 50% inhibition of cell proliferation)
Method: Reliable methods established for measuring the self-renewal ability of cells which is one of the CSC's properties include a method for measuring the sphere-forming ability of cancer cells in non-adherent condition in the absence of serum (Cancer Res 65, 5506-5511 (2005)). HT-29 cells were available from American Type Culture Collection (ATCC). HT-29 cells were cultured at 37° C. under 5% CO2 using the McCoy's 5a medium containing 10% fetal bovine serum (FBS) and 1% penicillin/streptomycin. HT-29 cells were seeded in a 384 Well Black Clear Bottom Ultra-Low Attachment Microplate (Corning Cat. No. 3827) in an amount of 350-800 cells/well using the DMEM/F12 medium containing 2% B27 supplement (GIBCO), 20 ng/mL epidermal growth factor (EGF) (peprotech), 10 ng/mL basic fibroblast growth factor (bFGF) (peprotech), 5 μg/mL insulin (Sigma), and 1% penicillin/streptomycin. Each test compound was added into each well to adjust the final concentration of DMSO to 0.1%, and the cells were cultured for 4 days. The number of viable cells in each well was then measured with CellTiter-Glo™ Luminescent Cell Viability Assay (Promega) to calculate the concentration of each test compound for 50% inhibition of cell proliferation (Sphere IC50 value; […])
The experiment of Test 1 was performed for each compound of each Example. The concentration of each test compound for 50% inhibition of cell proliferation (Sphere IC50 value; μmol/L) is shown in the following Table.

Chain of hERG (Q12809 whole entry): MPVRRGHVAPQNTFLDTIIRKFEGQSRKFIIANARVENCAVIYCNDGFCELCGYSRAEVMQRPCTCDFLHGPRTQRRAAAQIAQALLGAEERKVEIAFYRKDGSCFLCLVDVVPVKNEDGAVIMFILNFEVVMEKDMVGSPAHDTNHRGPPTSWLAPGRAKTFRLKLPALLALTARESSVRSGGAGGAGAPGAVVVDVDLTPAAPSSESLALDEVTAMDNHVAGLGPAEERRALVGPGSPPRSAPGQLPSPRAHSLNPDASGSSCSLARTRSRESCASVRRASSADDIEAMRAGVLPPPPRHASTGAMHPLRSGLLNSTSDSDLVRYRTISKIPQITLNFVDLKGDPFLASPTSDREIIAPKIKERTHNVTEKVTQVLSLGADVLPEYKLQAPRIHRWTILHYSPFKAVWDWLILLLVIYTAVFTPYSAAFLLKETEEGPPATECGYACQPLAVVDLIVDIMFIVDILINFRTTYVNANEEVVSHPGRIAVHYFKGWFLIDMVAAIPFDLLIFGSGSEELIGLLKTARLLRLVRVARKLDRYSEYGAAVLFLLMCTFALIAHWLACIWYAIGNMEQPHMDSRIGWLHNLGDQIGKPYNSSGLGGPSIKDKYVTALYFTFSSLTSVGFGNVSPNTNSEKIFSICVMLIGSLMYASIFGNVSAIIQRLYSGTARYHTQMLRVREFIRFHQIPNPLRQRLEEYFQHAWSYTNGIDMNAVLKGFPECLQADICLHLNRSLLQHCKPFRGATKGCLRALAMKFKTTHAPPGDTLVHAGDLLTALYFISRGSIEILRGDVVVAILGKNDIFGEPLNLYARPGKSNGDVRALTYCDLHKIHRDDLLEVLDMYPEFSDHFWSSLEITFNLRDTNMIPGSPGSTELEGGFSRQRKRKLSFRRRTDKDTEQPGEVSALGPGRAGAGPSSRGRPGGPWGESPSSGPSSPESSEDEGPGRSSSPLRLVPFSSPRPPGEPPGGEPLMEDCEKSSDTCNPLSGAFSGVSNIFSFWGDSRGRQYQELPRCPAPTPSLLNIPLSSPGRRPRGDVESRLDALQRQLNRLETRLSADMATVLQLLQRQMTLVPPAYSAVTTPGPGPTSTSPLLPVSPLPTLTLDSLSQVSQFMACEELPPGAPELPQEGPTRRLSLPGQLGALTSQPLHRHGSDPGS

`Cc1nccn1CC(=O)N1CCC2(CC1)COC1c3ccc(Br)cc3OC(C)(C)C1C2` (stereo not shown) [Example 8] gave an IC50 (hERG) of 300 nM, a hERG/HT-29 (hERG) of 0.97 and an IC50 (HT-29 cells) of 310 nM.

For `CC1(C)Oc2ccc(Cl)cc2C2OCC3(CCN(C(=O)Cn4cnc(C(F)(F)F)c4)CC3)CC21` (stereo not shown) [Example 17], the IC50 (hERG) was 3000 nM, the hERG/HT-29 (hERG) was 0.36 and the IC50 (HT-29 cells) was 8300 nM.

In the case of `Cc1c(CO)ncn1CC(=O)N1CCC2(CC1)COC1c3cc(Cl)ccc3OC(C)(C)C1C2` (stereo not shown) [Example 14], the IC50 (hERG) is reported as 300 nM, the hERG/HT-29 (hERG) is reported as 0.75 and the IC50 (HT-29 cells) is reported as 400 nM.

For `Cc1nccn1CCN1CCC2(CC1)COC1c3ccc(Cl)cc3OC(C)(C)C1C2` (stereo not shown) [Example 50], the IC50 (hERG) was 1500 nM, the hERG/HT-29 (hERG) was 50 and the IC50 (HT-29 cells) was 30 nM.

With `Cc1nccn1CCN1CCC2(CC1)COC1c3cc(F)ccc3OC(C)(C)C1C2` (stereo not shown) [Example 45] the IC50 (hERG) was 400 nM, the hERG/HT-29 (hERG) was >40 and the IC50 (HT-29 cells) was < 10 nM. For the same compound, the “activity for inhibiting cell proliferation in the sphere culture condition” value (HT-29 cells; sphere culture, summary in words) was “potent activity”.

Compound `Cc1nccn1CC(=O)N1CCC2(CC1)COC1c3cc(Cl)ccc3OC(C)(C)C1C2` (single isomer, unassigned) [Example 3] has an IC50 (hERG) of 200 nM, a hERG/HT-29 (hERG) of 2.50 and an IC50 (HT-29 cells) of 80 nM.

`Cc1nc(CO)cn1CCN1CCC2(CC1)COC1c3ccc(Cl)cc3OC(C)(C)C1C2` (stereo not shown) [Example 57] showed an IC50 (hERG) of 1100 nM, a hERG/HT-29 (hERG) of 15.7 and an IC50 (HT-29 cells) of 70 nM.

`CC1(C)Oc2ccc(Cl)cc2C2OCC3(CCN(CCn4ccnc4C#N)CC3)CC21` (stereo not shown) [Example 58] gave an IC50 (hERG) of 1900 nM, a hERG/HT-29 (hERG) of 27.1 and an IC50 (HT-29 cells) of 70 nM.

Work on `CC(=O)NCCc1nccn1CCN1CCC2(CC1)COC1c3cc(Cl)ccc3OC(C)(C)C1C2` (stereo not shown) [Example 60] yielded an IC50 (hERG) of 1100 nM, a hERG/HT-29 (hERG) of 6.88 and an IC50 (HT-29 cells) of 160 nM.

For `CC1(C)Oc2ccc(Cl)cc2C2OCC3(CCN(C(=O)Cn4ccnc4C#N)CC3)CC21` (stereo not shown) [Example 12], the IC50 (hERG) was 2900 nM, the hERG/HT-29 (hERG) was 5.27 and the IC50 (HT-29 cells) was 550 nM.

Compound `Cc1nccn1CCN1CCC2(CC1)COC1c3cc(F)ccc3OC(C)(C)C1C2` (stereo not shown) [Example 43] has an IC50 (hERG) of 1000 nM, a hERG/HT-29 (hERG) of 20 and an IC50 (HT-29 cells) of 50 nM.

For `CC1(C)Oc2ccc(Cl)cc2C2OCC3(CCN(C(=O)Cn4ccnc4CO)CC3)CC21` (stereo not shown) [Example 15], the IC50 (hERG) was 1600 nM, the hERG/HT-29 (hERG) was 5.33 and the IC50 (HT-29 cells) was 300 nM.

— patent US10807993B2, “Dihydrochromene derivatives” (Sumitomo Dainippon Pharma Co., Ltd., priority 2018, dated 2020)
